According to US20110112151A1, “COMPOUND CAPABLE OF INHIBITING 11-BETA HYDROXYSTERIOD DEHYDROGENASE” (priority 2008, published 2011):
Like-named read-outs stand apart in the source and are kept apart here.

Legend:
[1] = target: T1, 11β-HSD1 (Homo sapiens, UniProt P28845); test: 11β-HSD1 HEK assay (cell based assay, SPA)
T1 construct: expressed in transfected cells; host or cells: HEK 293 (stably transfected, HEK 293/HSD11B1)
Description: 11β-HSD1 HEK Assay Protocol (Cell Based Assay)
11β-HSD1 activity is measured in whole HEK 293 cells stably transfected with the HSD11B1 gene. Cells are incubated in 96-well microplates in the presence of tritiated substrate. Enzyme activity is determined by measuring the amount of tritated product by scintillation proximity assay (SPA). Assay plates contain internal high and low controls to allow calculation of percentage inhibition.
1. […] 2. When the cells are 80% confluent the medium is removed from each well. 100 μl fresh, serum-free, medium containing ^3H-cortisone and test compound in 1% DMSO is added to each well*. Control wells are also dispensed. […] 3. The plate is incubated at 37° C. for the required time period. 4. 50 μl of media is removed from each well and transferred to a microplate containing 100 μl of a pre-incubated mixture of anti-cortisol antibody and SPA bead. The mixture is incubated with gentle shaking until equilibrium is reached, before transferring to a scintillation counter to establish the enzyme activity in each sample.
10 μl of compound is dispensed into each well of a 96-well microplate in 10% DMSO at 100 μM concentration. 90 μl media containing ^3H-cortisone is added to each well. The compound/media/substrate mixture is then transferred to the assay plate containing the cells. […]

[2] = HEK293, at 1 μM, whole HEK 293 cells stably transfected with the HSD11B1 gene, 3H-cortisone substrate, read-out: Activity (inhibition of 11β-HSD1)

T1 sequence (P28845 whole entry): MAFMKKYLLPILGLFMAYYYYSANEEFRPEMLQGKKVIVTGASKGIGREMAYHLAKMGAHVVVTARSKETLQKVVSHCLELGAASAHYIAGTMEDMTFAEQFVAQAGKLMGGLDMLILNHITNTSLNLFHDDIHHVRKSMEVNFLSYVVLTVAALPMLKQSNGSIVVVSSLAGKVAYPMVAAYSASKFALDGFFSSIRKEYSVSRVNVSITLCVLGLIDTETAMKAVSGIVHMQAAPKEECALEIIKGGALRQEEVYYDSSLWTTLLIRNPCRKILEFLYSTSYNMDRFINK

Row | SMILES | melting point [°C] | inhibition at 1 µM [1, 2] [%] | inhibition at 1 µM ([1]; HEK293, read-out: Activity (inhibition of 11β-HSD1)) [%]
1 | O=C(CSCc1cccnc1)C12CC3CC(CC(C3)C1)C2 [Example 7, 1-Adamantan-1-yl-2-(pyridin-3-ylmethylsulfanyl)-ethanone] | 45 to 47 | > 60 | –
2 | O=C(C[S+]([O-])Cc1cccnc1)C12CC3CC(CC(C3)C1)C2 (stereo not shown) [Example 8, 1-Adamantan-1-yl-2-(pyridin-3-ylmethanesulfinyl)-ethanone] | 116 to 119 | > 60 | –
3 | O=C(CS(=O)(=O)Cc1ccc[n+]([O-])c1)C12CC3CC(CC(C3)C1)C2 [Example 10, 1-Adamantan-1-yl-2-(1-oxy-pyridin-3-ylmethanesulfonyl)-ethanone] | 182 to 183.5 | > 60 | –
4 | O=C(CSCc1ccccn1)C12CC3CC(CC(C3)C1)C2 [Example 11, 1-Adamantan-1-yl-2-(pyridin-2-ylmethylsulfanyl)-ethanone] | 38 to 39 | > 60 | –
5 | Cn1c(SCC(=O)C23CC4CC(CC(C4)C2)C3)nc2ccccc21 [Example 14, 1-Adamantan-1-yl-2-(1-methyl-1H-benzoimidazol-2-ylsulfanyl)-ethanone] | 146 to 147.5 | < 20 | –
6 | Cn1ccnc1[S+]([O-])C(C)(C)C(=O)C12CC3CC(CC(C3)C1)C2 (stereo not shown) [Example 15, 1-Adamantan-1-yl-2-methyl-2-(1-methyl-1H-imidazole-2-sulfinyl)-propan-1-one] | 98 to 102 | < 20 | –
7 | O=C(C[S+]([O-])Cc1ccccn1)C12CC3CC(CC(C3)C1)C2 (stereo not shown) [Example 17, 1-Adamantan-1-yl-2-(pyridin-2-ylmethanesulfinyl)-ethanone] | 87 to 88.5 | > 60 | –
8 | Cc1cccc(SCC(=O)C23CC4CC(CC(C4)C2)C3)n1 [Example 26, 1-Adamantan-1-yl-2-(6-methyl-pyridin-2-ylsulfanyl)-ethanone] | 115.5 to 116.5 | > 60 | –
9 | O=C(CSc1ccncc1)C12CC3CC(CC(C3)C1)C2 [Example 27, 1-Adamantan-1-yl-2-(pyridin-4-ylsulfanyl)-ethanone] | 114 to 115 | > 60 | –
10 | O=C(O)c1ccc(SCC(=O)C23CC4CC(CC(C4)C2)C3)nc1 [Example 29, 6-(2-Adamantan-1-yl-2-oxo-ethylsulfanyl)-nicotinic acid] | 174 to 176 | > 60 | –
11 | Cc1cccc([S+]([O-])CC(=O)C23CC4CC(CC(C4)C2)C3)n1 (stereo not shown) [Example 31, 1-(adamantan-1-yl)-2-[(6-methylpyridine-2-)sulfinyl]ethan-1-one] | 75 to 76 | > 60 | –
12 | O=C(CS(=O)(=O)c1ccncc1)C12CC3CC(CC(C3)C1)C2 [Example 32, 1-(adamantan-1-yl)-2-(pyridine-4-sulfonyl)ethan-1-one] | 143 to 144 | > 60 | –
13 | CCNC(=O)c1ccc(SCC(=O)C23CC4CC(CC(C4)C2)C3)nc1 [Example 34, 6-{[2-(adamantan-1-yl)-2-oxoethyl]sulfanyl}-N-ethylpyridine-3-carboxamide] | 135.5 to 137 | > 60 | –
14 | CN(C)C(=O)c1ccc(SCC(=O)C23CC4CC(CC(C4)C2)C3)nc1 [Example 35, 6-(2-Adamantan-1-yl-2-oxo-ethylsulfanyl)-N,N-dimethyl-nicotinamide] | 62.5 to 64.5 | > 60 | –
15 | CNC(=O)c1ccc(SCC(=O)C23CC4CC(CC(C4)C2)C3)nc1 [Example 36, 6-(2-Adamantan-1-yl-2-oxo-ethylsulfanyl)-N-methyl-nicotinamide] | 184 to 185.5 | > 60 | –
16 | O=C(/C=C/c1cccnc1)C12CC3CC(CC(C3)C1)C2 [Example 38, 1-Adamantan-1-yl-3-pyridin-3-yl-propenone] | 107 to 108.5 | > 60 | –
17 | O=C(CCc1cccnc1)C12CC3CC(CC(C3)C1)C2 [Example 39, 1-Adamantan-1-yl-3-pyridin-3-yl-propan-1-one] | 43 to 44.5 | > 60 | –
18 | O=C(COc1cccnc1)C12CC3CC(CC(C3)C1)C2 [Example 61, 1-Adamantan-1-yl-2-(pyridin-3-yloxy)-ethanone] | 73 to 75 | > 60 | –
19 | O=C(CSCc1ccc(Cl)nc1)C12CC3CC(CC(C3)C1)C2 [Example 62, 1-Adamantan-1-yl-2-(6-chloro-pyridin-3-ylmethylsulfanyl)-ethanone] | 88 to 90 | 20 to 60 | –

Row | SMILES | melting point [°C] | inhibition at 1 µM [1, 2] [%] | inhibition at 1 µM ([1]; HEK293, read-out: Activity (inhibition of 11β-HSD1)) [%]
20 | Cn1cnnc1[S+]([O-])CC(=O)C12CC3CC(CC(C3)C1)C2 (stereo not shown) [Example 63, 1-Adamantan-1-yl-2-(4-methyl-4H-[1,2,4]triazole-3-sulfinyl)-ethanone] | 124.5 to 127 | > 60 | –
21 | O=C(CS(=O)(=O)Cc1ccc(Cl)nc1)C12CC3CC(CC(C3)C1)C2 [Example 64, 1-Adamantan-1-yl-2-(6-chloro-pyridin-3-ylmethanesulfonyl)-ethanone] | 159 to 161 | > 60 | –
22 | O=C(CSc1ccc(C(F)(F)F)cn1)C12CC3CC(CC(C3)C1)C2 [Example 66, 1-Adamantan-1-yl-2-(5-trifluoromethyl-pyridin-2-ylsulfanyl)-ethanone] | 141 to 142 | > 60 | –
23 | O=C(CS(=O)(=O)c1ccc(C(F)(F)F)cn1)C12CC3CC(CC(C3)C1)C2 [Example 67, 1-Adamantan-1-yl-2-(5-trifluoromethyl-pyridine-2-sulfonyl)-ethanone] | 138 to 139 | 20 to 60 | –
24 | O=C(CS(=O)(=O)Cc1cccc[n+]1[O-])C12CC3CC(CC(C3)C1)C2 [Example 76, 1-Adamantan-1-yl-2-(1-oxy-pyridin-2-ylmethanesulfonyl)-ethanone] | 225 to 227.5 | > 60 | –
25 | Cn1cnnc1S(=O)(=O)CC(=O)C12CC3CC(CC(C3)C1)C2 [Example 77, 1-Adamantan-1-yl-2-(4-methyl-4H-[1,2,4]triazole-3-sulfonyl)-ethanone] | 149 to 150 | > 60 | –
26 | Cc1nnc(SCC(=O)C23CC4CC(CC(C4)C2)C3)s1 [Example 78, 1-Adamantan-1-yl-2-(5-methyl-[1,3,4]thiadiazol-2-ylsulfanyl)-ethanone] | 102 to 105 | – | > 60
27 | Cc1nnc([S+]([O-])CC(=O)C23CC4CC(CC(C4)C2)C3)s1 (stereo not shown) [Example 80, 1-Adamantan-1-yl-2-(5-methyl-[1,3,4]thiadiazole-2-sulfinyl)-ethanone] | – | > 60 | –
28 | O=C(CSCc1ccncc1)C12CC3CC(CC(C3)C1)C2 [Example 81, 1-Adamantan-1-yl-2-(pyridin-4-ylmethylsulfanyl)-ethanone] | – | > 60 | –
29 | Cc1cc(C)c(C(=O)C[S+]([O-])c2ccccn2)c(C)c1 (stereo not shown) [Example 82, 1-mesityl-2-(pyridin-2-ylsulfinyl)ethanone] | – | < 20 | –
30 | O=C(CS(=O)(=O)Cc1ccncc1)C12CC3CC(CC(C3)C1)C2 [Example 83, 1-Adamantan-1-yl-2-(pyridin-4-ylmethanesulfonyl)-ethanone] | – | > 60 | –
31 | COc1ccncc1COCC(=O)C12CC3CC(CC(C3)C1)C2 [Example 85, 2-((4-methoxypyridin-3-yl)methoxy)-1-adamantylethanone] | – | > 60 | –
32 | COc1cccnc1COCC(=O)C12CC3CC(CC(C3)C1)C2 [Example 86, 2-((3-Methoxypyridin-2-yl)methoxy)-1-adamantylethanone] | – | > 60 | –
33 | CC(=O)Nc1nnc(S(=O)(=O)CC(=O)C23CC4CC(CC(C4)C2)C3)s1 [Example 93, N-(5-{[2-(Adamantan-1-yl)-2-oxoethane]sulfonyl}-1,3,4-thiadiazol-2-yl)acetamide] | – | > 60 | –
34 | COc1cncc(COCC(=O)C23CC4CC(CC(C4)C2)C3)c1 [Example 98, 1-Adamantan-1-yl-2-(5-methoxy-pyridin-3-ylmethoxy)-ethanone] | – | > 60 | –
35 | Cn1cnnc1SCC(=O)C(C)(C)c1ccc(Cl)cc1 [Example 99, 3-(4-Chlorophenyl)-3-methyl-1-(4-methyl-4H-1,2,4-triazol-3-ylthio)butan-2-one] | – | 20 to 60 | –
36 | Cn1cnnc1SCC(=O)C1(c2ccc(Cl)cc2)CC1 [Example 100, 1-(1-(4-Chlorophenyl)cyclopropyl)-2-(4-methyl-4H-1,2,4-triazol-3-ylthio)ethanone] | – | 20 to 60 | –
37 | Cn1cnnc1SCC(=O)C1(c2ccc(Cl)cc2)CCC1 [Example 108, 1-(1-(4-Chlorophenyl)cyclobutyl)-2-(4-methyl-4H-1,2,4-triazol-3-ylthio)ethanone] | – | 20 to 60 | –
38 | Cn1cnnc1[S+]([O-])CC(=O)C1(c2ccc(Cl)cc2)CCC1 (stereo not shown) [Example 109, 1-(1-(4-Chlorophenyl)cyclobutyl)-2-(4-methyl-4H-1,2,4-triazol-3-ylsulfinyl)ethanone] | – | < 20 | –
